Entries after “also recorded” stand apart in the source; their conditions may differ.
Key:
methylation of H3K9 = experiment: H3K9 methylation by Western blotting and mass spectrometry (FIG. 3A); type: cell-based
Experimental: (§1) Generally, for G9a inhibitor experiments cells were treated with active compound at 0.1, 0.2, 0.5 and/or 1 uM of the G9a inhibitor, UNC0638, for 3-5 days prior to chemotherapy treatment and were maintained on drug for the duration of the study.
(§2) Cell lysates were prepared in Laemmli sample buffer and analyzed by immunoblotting as described previously. Cell lystates were analyzed using commercial antibodies against modifications on H3 (Abcam, Active Motif, and Cell Signaling Technologies).
Samples with 10 million cells were lysed and histones were isolated from cell lysates using the Active Motif Histone Purification Kit (world wide web activemotif.com/catalog/171.html). Protein quantitation post-isolation was performed using the Qubit fluorescence platform (Invitrogen). The target yield was at least 20 μg or greater of purified histone per 5 million cells. The samples were then derivatized and binary comparisons using d0/d10 propionic anhydride and trypsin digestion was conducted. […]
Peptide digests were analyzed by nano LC/MS/MS in data-dependent mode on a LTQ Orbitrap Velos tandem mass spectrometer. […] Trypsin-digested propionylated samples were quantitated within each LC/MS run by comparing d0/d5 pairs (according to the work of Garcia et al., JPR, 8, 5367-5374 (2009)). Alternate enzyme samples were quantitated label-free between LC/MS runs.

G9aK185me3 = experiment: G9a auto-methylation (FIG. 3B); type: cell-based
Experimental: Cell lysates were prepared in Laemmli sample buffer and analyzed by immunoblotting as described previously.

H3K9 methylation [1] = experiment: H3K9 methylation Western blot in PC9 cells (FIG. 6A); type: cell-based, human
Experimental: as §1, §2

PC9 DTPs = experiment: PC9 drug tolerant persister (DTP) formation/viability, Tarceva; type: cell-based, human
Experimental: (§3) 2×10^5 cells were plated in each well of a 6-well cluster dish. 24 hours after plating, media was removed and replaced with media containing drugs. Fresh media was replaced every 2 days until untreated cells reached confluence. Media was then removed, cells were washed with Phosphate Buffered Saline (PBS), and then fixed for 15 min with 4% formaldehyde in PBS. Cells were then washed with PBS and stained with the fluorescent nucleic acid stain, Syto60 ([…] in PBS; Molecular Probes) for 15 min. Dye was removed, cell monolayers were washed with PBS, and fluorescence quantitation was carried out at 700 nm with an Odyssey Infrared Imager (Li-Cor Biosciences). In some setting, RFP nuc red cells were used rather than Syto60.
(§4) Drug-sensitive cells were treated with relevant drug as described herein at concentrations exceeding 100 times the established IC50 values, for three rounds, with each treatment lasting 72 hours. […]
(§5) Specifically for Tarceva, GDC-0980, GDC-0973, AZ628, and Lapatinib DTPs, cells were plated and grown to 60-70% confluency then treated with Tarceva (0.1, 0.2, 0.5, and/or 1 uM), GDC-0980 (2 uM), GDC-0973 (1 uM), AZ628 (2 uM) and Lapatinib (1 uM). DTPs were collected and analyzed 1 week after the final dose of chemotherapy. […]

parental PC9 cells = experiment: Viability of parental PC9 cells; type: cell-based, human; details: shown concentrations; FIG. 6B
Experimental: as §3, §1

H3K9 methylation [2] = experiment: H3K9 methylation in EVSA-T cells (FIG. 8A); type: cell-based; details: human breast cancer cell line EVSA-T
Experimental: as §1, §2

EVSA-T DTPs = experiment: EVSA-T DTP formation, GDC-0980; type: cell-based, human; details: DTPs upon treatment with GDC-0980; FIG. 8B
Experimental: as §3, §4, §5

EVSA-T parental cells = experiment: Viability of EVSA-T parental cells; type: cell-based, human; details: shown concentrations; FIG. 8B
Experimental: as §3, §1

H3K9 methylation [3] = experiment: H3K9 methylation in SKBR3 cells (FIG. 9A); type: cell-based; details: human breast adenocarcinoma cell line SKBR3
Experimental: as §1, §2

SKBR3 DTPs = experiment: SKBR3 DTP formation, Lapatinib; type: cell-based, human; details: DTPs upon treatment with Lapatinib; FIG. 9B
Experimental: as §3, §4, §5

SKBR3 parental cells = experiment: Viability of SKBR3 parental cells; type: cell-based, human; details: shown concentrations; FIG. 9B
Experimental: as §3, §1

H3K9 methylation [4] = experiment: H3K9 methylation in M14 cells (FIG. 10A); type: cell-based; details: human melanoma cell line M14
Experimental: as §1, §2

M14 DTPs = experiment: M14 DTP formation, GDC0973; type: cell-based, human; details: DTPs upon treatment with GDC0973; FIG. 10B
Experimental: as §3, §4, §5

M14 parental cells = experiment: Viability of M14 parental cells; type: cell-based, human; details: shown concentrations; FIG. 10B
Experimental: as §3, §1

H3K9 methylation [5] = experiment: H3K9 methylation in Colo205 cells (FIG. 11A); type: cell-based; details: human colon cancer cell line Colo205
Experimental: as §1, §2

Colo205 DTPs = experiment: Colo205 DTP formation, AZ628; type: cell-based, human; details: DTPs upon treatment with AZ628; FIG. 11B
Experimental: as §3, §4, §5

Colo205 parental cells = experiment: Viability of Colo205 parental cells; type: cell-based, human; details: shown concentrations; FIG. 11B
Experimental: as §3, §1

H3K9me2 levels = details: Vedadi et al. 2011; Sweis et al. 2014; cited from earlier work

COc1cc2c(NC3CCN(C(C)C)CC3)nc(C3CCCCC3)nc2cc1OCCCN1CCCC1 [UNC0638]
inhibition of methylation of H3K9 (methylation of H3K9): capable of inhibiting methylation of H3K9 | inhibition of auto-methylation G9aK185me3 (G9aK185me3): inhibits auto-methylation G9aK185me3 | H3K9 methylation (me1, me2, me3) (H3K9 methylation [1]): reduced methylation of H3K9; also recorded: reduces H3K9 methylation (e.g., me1, me2, and me3) in a dose dependent manner | viability/number of PC9 DTPs generated via treatment with Tarceva (PC9 DTPs; Tarceva, FIGS. 5 and 7): reduces the number of the non-small cell lung cancer cell line, PC9, DTPs; also recorded: reduced the viability of PC9 DTPs | number of DTPs formed after pre-treatment (PC9 DTPs; varying doses of UNC0638 pre-treatment, FIG. 6B): reducing the number of PC9 DTPs; also recorded: dose dependent reduction in the number of DTPs formed | viability of the parental PC9 cells (parental PC9 cells): do not affect the viability of the parental PC9 cells | H3K9 methylation (me1, me2, me3) (H3K9 methylation [2]): reduces H3K9 methylation (e.g., me1, me2, and me3) in a dose dependent manner | number of EVSA-T DTPs formed after pre-treatment (EVSA-T DTPs): dose dependent reduction in the number of EVSA-T DTPs formed | viability of the EVSA-T parental cells (EVSA-T parental cells): do not affect the viability of the EVSA-T parental cells | H3K9 methylation (me1, me2, me3) (H3K9 methylation [3]): reduces H3K9 methylation (e.g., me1, me2, and me3) in a dose dependent manner | number of SKBR3 DTPs formed after pre-treatment (SKBR3 DTPs): dose dependent reduction in the number of SKBR3 DTPs formed | viability of the SKBR3 parental cells (SKBR3 parental cells): do not affect the viability of the SKBR3 parental cells | H3K9 methylation (me1, me2, me3) (H3K9 methylation [4]): reduces H3K9 methylation (e.g., me1, me2, and me3) in a dose dependent manner | number of M14 DTPs formed after pre-treatment (M14 DTPs): dose dependent reduction in the number of M14 DTPs formed | viability of the M14 parental cells (M14 parental cells): do not affect the viability of the M14 parental cells | H3K9 methylation (me1, me2, me3) (H3K9 methylation [5]): reduces H3K9 methylation (e.g., me1, me2, and me3) in a dose dependent manner | number of Colo205 DTPs formed after pre-treatment (Colo205 DTPs): dose dependent reduction in the number of Colo205 DTPs formed | viability of the Colo205 parental cells (Colo205 parental cells): do not affect the viability of the Colo205 parental cells | H3K9me2 levels (H3K9me2 levels): reduces H3K9me2 levels in a concentration dependent manner
